The text below walks through data of ChEMBL document CHEMBL1129125, “Tc-99m-labeled fibrinogen receptor antagonists: design and synthesis of cyclic RGD peptides for the detection of thrombi” (Bioorg Med Chem Lett, 1996).

What all share (format): functional, organism-based
Conditions in all cases: Canis lupus familiaris; tested as the 125I-labelled form

For assay [1], the species on record is Canis familiaris. Kind of assay: Compound was tested for uptake in thrombus in the canine arteriovenous shunt model in arterial rich condition.
For assay [2], the species on record is Canis familiaris. In words: Compound was tested for uptake in thrombus in the canine arteriovenous shunt model in venous rich condition.
Assay [3] is filed under the species Canis familiaris. Kind of assay: Thrombus and blood ratio was determined in the canine arteriovenous shunt model in arterial rich condition.
The species named for assay [4] is Canis familiaris. Kind of assay: Thrombus and blood ratio was determined in the canine arteriovenous shunt model in venous rich condition.

Structures are written as SMILES.

Turning to `CN1C(=O)[C@@H](CCCCNC(=O)CCc2ccc(O)c(I)c2)NC(=O)c2cccc(c2)CNC(=O)[C@H](CC(=O)O)NC(=O)CNC(=O)[C@@H]1CCCN=C(N)N`, the ID/g came out at 2.6% in the assay listed under Canis familiaris [1] and 0.45% in the assay filed under Canis familiaris [2]. Besides, the Uptake ratio in the assay listed under Canis familiaris [3] is 43.9; in the assay filed under Canis familiaris [4] it was 7.82.

`CN1C(=O)[C@@H](Cc2ccc(O)c(I)c2)NC(=O)c2cccc(c2)CNC(=O)[C@H](CC(=O)O)NC(=O)CNC(=O)[C@@H]1CCCN=C(N)N`: the ID/g came out at 1.81% in the assay filed under Canis familiaris [1] and 0.25% in the assay filed under Canis familiaris [2]. The Uptake ratio in the assay filed under Canis familiaris [3] was 173; in the assay filed under Canis familiaris [4], 19.3.
